According to patent US20240391904A1, “DIHYDROPYRIMIDINE BASED COMPOUND, PREPARATION METHOD THEREFOR AND USE OF THEREOF” (CHENGDU SHIBEIKANG BIOMEDICAL TECHNOLOGY CO., LTD., priority 2021, published 2024):
Marks after values point to notes of the source that are not given here.

Assays:
KM mice = assay: Mouse cough test (ammonia-induced coughing); type: in vivo; conditions: for Number of Coughs (time): mice
Source text: Compounds of Example 1-24 (synthesized in the inventor's laboratory), positive control drug (gefapixant, batch No: 01030-210326-2-1, purchased from Holder Pharmaceuticals), the compound of Comparative Example 1 (synthesized in the inventor's laboratory).
Healthy adult KM mice, half of them are male and half of them are female, 6 per group, weighing about 28-30 g.
Most of the animal coughing models currently reported in the literatures use mechanical, chemical and electrical stimulations to stimulate the nerves and receptors of the animals to trigger coughing. According to the characteristics of the candidate compounds and the existing similar target compounds for reference, the method of concentrated ammonia induction was initially chosen to establish the cough modeling test in mice.
Preparation of 50% ammonia solution: 2.5 ml of ammonia was dissolved in […] of a 0.9% sodium chloride solution for injection and mixed evenly.
Preparation of a solution of the compound of Comparative Example 1: 9 mg of the compound of Comparative Example 1 was weighed and dissolved in 3 ml of a 0.5% CMC-Na solution, and mixed evenly to prepare a 3 mg/ml solution.
Preparation of a solution of the example compounds: 9 mg of the example compound was weighed and dissolved in 3 ml of a 0.5% CMC-Na solution, and mixed evenly to prepare a 3 mg/ml solution.
Grouping: a positive control group, a Comparative Example 1 group, Example 1 group-Example 24 group, and a model group were set up. Six KM mice were taken from each group and administered by gavage; here, the Comparative Example 1 group was given the compound of Comparative Example 1, the positive control group was given the positive control drug (gefapixant, commercially purchased), the Example groups were given the compounds prepared in the corresponding Examples, with each group given one of three dosages: 30 mg/kg, […], and 3 mg/kg; and the model group was given the same volume of 0.5% CMC-Na solution.
30 min, 60 min or 120 min after administration, the mice were placed in a 500 ml beaker with a cotton ball (weight 100±5 mg) containing 0.3 ml of 50% ammonia.
(1) Judgment criteria of coughing: coughing was manifest in contraction of abdominal muscles or chest contraction, with mouth wide opening and a coughing sound.
(2) The number of coughs (times) within 3 min was recorded with a stopwatch, and the data were statistically analyzed by software, with the data in each group shown in mean±standard deviation. A one-way analysis of variance among the groups was conducted, and P<0.05 was considered a difference having a statistical significance.

SD rats = assay: Taste disorder test (quinine water versus tap water intake); type: in vivo, rat; conditions: for effect on the taste sense: 10 mg/kg intravenously, quinine/tap water ratio compared with vehicle group; for Quinine/tap water (%): 10 mg/kg tail intravenous injection, 0-15 min after administration, 0.3 mM quinine hydrochloride water versus tap water
Method: Compounds of Examples 1, 9, 12, 15, 16, 24 (synthesized in the laboratory of the present inventor), the positive control drug (gefapixant, batch No: 01030-210326-2-1, purchased from Holder Pharmaceuticals).
0.9% sodium chloride solution for injection, quinine hydrochloride (Quinie, batch No: C12476271)
Healthy adult SD rats, all males, weighing about 280-300 g.
Preparation of 0.3 mM quinine solution: 119.20 mg of quinine hydrochloride was weighed and dissolved in 1000 ml of tap water, and mixed evenly.
Preparation of the test sample solution: 40 mg of a test sample was dissolved in DMSO and a solution of the solubilizer HS-15 was added, mixed evenly, and 16 ml of saline was added to formulate a 2.5 mg/ml solution.
Animal and grouping: male SD rats weighed about 160-180 g each, with 10 of a similar average weight in each group, were housed in seperate cages.
Drinking habit training: each group was given normal drinking water for 30 minutes at 8:30 am and 16:30 pm every day, and no access of water for the rest of the day for 5 days, and two bottles of water were changed every day at the left and right positions.
Administration: with no access to water the night before the experiment, in the following morning the test group was given 4 mL/kg (10 mg/kg) of the test sample by tail intravenous injection, and the model group was given 4 mL/kg (10 mg/kg) of 0.5% HS-15 by intravenous injection.
The animals were allowed to drink freely for 15 min, and the amount of water consumed from the two bottles was measured to the nearest 0.1 ml.
(2) Statistical analysis of the data: the drinking volume of the quinine bitter water and tap water were recorded separately, as well as the percentage of quinine water to the tap water, and the significance of the difference between the groups was determined by ANOVA.

human P2X3 receptor = biological target: T1, human P2X3 receptor (Homo sapiens, UniProt P56373); assay: In vitro bioactivity evaluation: FLIPR antagonist mode, HEK 293 cells stably transfected with human P2X3 receptor, BZATP agonist
T1 sequence (P56373 1-397): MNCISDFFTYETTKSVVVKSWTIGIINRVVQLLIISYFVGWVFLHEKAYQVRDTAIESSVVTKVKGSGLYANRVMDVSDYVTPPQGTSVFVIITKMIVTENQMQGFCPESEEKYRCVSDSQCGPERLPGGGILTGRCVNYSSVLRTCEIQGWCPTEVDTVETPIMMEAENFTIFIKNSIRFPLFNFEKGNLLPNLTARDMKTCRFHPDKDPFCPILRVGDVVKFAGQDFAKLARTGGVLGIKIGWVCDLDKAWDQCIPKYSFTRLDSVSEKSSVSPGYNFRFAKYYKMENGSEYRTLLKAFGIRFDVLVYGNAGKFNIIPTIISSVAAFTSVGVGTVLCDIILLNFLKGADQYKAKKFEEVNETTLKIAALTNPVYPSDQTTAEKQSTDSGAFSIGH
Method: Cell culture medium: DMEM high glucose; 10% FBS; 1% PenStrep.
The Petri dish was placed in an incubator for 1-3 minutes or until the cells were digested, 3 mL of a complete medium was then added to terminate the digestion, and the cell density was determined by a cell counter. • 2) After centrifugation at 1000 rpm/min for 5 min, the cells were resuspended in a growth medium and the volume of the suspension was adjusted to reach a cell density of 4×10^5 cells/mL (1×10^4 cells/25 μL). • 3) 10 μL of 5× Matrigel was added into a black microplate, and the microplate was placed in an incubator for 15 min. The microplate was removed and invertedly centrifuged at 300 g/min for 30 s to remove the 5× Matrigel.

[1] = cited from earlier work
[2] = 10 mg/kg by gavage, 60 min after administration, coughs within 3 min
[3] = 30 mg/kg by gavage, 30 min after administration, coughs within 3 min, ammonia-induced
[4] = 30 mg/kg by gavage, 60 min after administration, coughs within 3 min (Table 5)

## C[C@@H](Cn1c(=O)cc(Nc2ccc(Oc3cccc(F)n3)cc2)n(Cc2ccc(Cl)cc2)c1=O)C(=O)NS(C)(=O)=O [Compound 24]
KM mice; 3 mg/kg, 60 min after administration, compared with model group
  reduction in the number of coughs at 3 mg/kg: statistically significant (P<0.01) reduction in the number of coughs
KM mice; 60 min after administration
  cough suppressing efficacy at 10 mg/kg: improved cough suppressing efficacy than the positive control drug
KM mice; 30 mg/kg, 30 to 120 min after administration
  duration of the cough suppression action: significantly prolonged compared with that of the compound of Comparative Example 1
KM mice; 30 mg/kg, 30 min after administration
  cough suppressing effect compared with the positive compound: stronger than that of the positive compound
KM mice; 3 mg/kg by gavage, 60 min after administration, coughs within 3 min
  Number of Coughs (time): 25.45** time
KM mice; [2]
  Number of Coughs (time): 24.14**^Δ time
KM mice; [3]
  Number of Coughs (time): 17.07** time
KM mice; [4]
  Number of Coughs (time): 21.33** time
KM mice; 30 mg/kg by gavage, 60 min after administration, coughs within 3 min (Table 6)
  Number of Coughs (time): 21.33** time
KM mice; 30 mg/kg by gavage, 120 min after administration, coughs within 3 min
  Number of Coughs (time): 25.14**^Δ time
SD rats
  effect on the taste sense: little or no effect on the taste sense
  Quinine/tap water (%): 39.61%^Δ
Human P2X3 receptor
  IC50: < 10 nM

## COc1cc(C(C)C)c(Oc2cnc(N)nc2N)cc1S(N)(=O)=O [Positive control, gefapixant, reference compound]
KM mice; 60 min after administration
  cough suppressing efficacy at 10 mg/kg: did not have a significant effect in reducing coughs
KM mice; [2]
  Number of Coughs (time): 38.83 time
KM mice; [3]
  Number of Coughs (time): 20.33* time
KM mice; [4]
  Number of Coughs (time): 23.83** time
SD rats
  effect on the taste sense: significant effect on the taste sense
  Quinine/tap water (%): 79.01%**
[1]; 15 mg twice a day
  primary efficacy endpoint: not met
[1]; 45 mg twice a day, Week 12 (COUGH-1) and Week 24 (COUGH-2), compared to placebo
  24-hour cough frequency: statistically significant reduction
[1]; 45 mg
  discontinuation due to adverse events: higher frequency
  taste-related adverse events: higher incidence
